How the values were obtained:
ALK kinase = ALK kinase (Homo sapiens, UniProt Q9UM73); experiment: ALK kinase assay; type: biochemical; settings: ALK kinase assay; read-out: ALK (IC50 grading)
Protocol: An in vitro assay which determines the ability of a test compound to inhibit ALK kinase. a) kinase-tagged T7 phage strains were prepared in an E. coli host derived from the BL21 strain. E. coli were grown to log-phase and infected with T7 phage and incubated with shaking at 32° C. until lysis. The lysates were centrifuged and filtered to remove cell debris. The remaining kinases were produced in HEK-293 cells and subsequently tagged with DNA for qPCR detection. […] The liganded beads were blocked with excess biotin and washed with blocking buffer (SeaBlock (Pierce), 1% BSA, 0.05% Tween 20, 1 mM DTT) to remove unbound ligand and to reduce non-specific binding. […] All reactions were performed in polystyrene 96-well plates in a final volume of 0.135 ml. […] The kinase concentration in the eluates was measured by qPCR. […]
b) An alternative method to conduct the kinase assay with the following condition and procedure: Reagent: Base Reaction buffer; 20 mM Hepes (pH 7.5), 10 mM MgCl2, 1 mM EGTA, 0.02% Brij35, 0.02 mg/ml BSA, 0.1 mM Na3VO4, 2 mM DTT, 1% DMSO.
1. Preparing indicated substrate in freshly prepared Base Reaction Buffer
2. Delivering any required cofactors to the substrate solution above
3. Delivering indicated kinase into the substrate solution and gently mix
4. Delivering compounds in DMSO into the kinase reaction mixture
5. Delivering ^33P-ATP (specific activity 0.01 μCi/μl final) into the reaction mixture to initiate the reaction.
6. Incubating kinase reaction for 120 min. at room temperature
7. Reactions are spotted onto P81 ion exchange paper (Whatman #3698-915)
8. Washing filters extensively in 0.75% Phosphoric acid. […]
c) An alternative method to conduct the kinase assay with the following condition and procedure: The assay was performed using Kinase-Glo Plus luminescence kinase assay kit (Promega). It measures kinase activity by quantitating the amount of ATP remaining in solution following a kinase reaction. The luminescent signal from the assay is correlated with the amount of ATP present and is inversely correlated with the amount of kinase activity.
The compound were diluted in 10% DMSO and 5 μl of the dilution was added to a 50 μl reaction so that the final concentration of DMSO is 1% in all of reactions. All of the enzymatic reactions were conducted at 30° C. for 40 minutes. The 50 μl reaction mixture contains 40 mM Tris, pH 7.4, 10 mM MgCl2, 0.1 mg/ml BSA, 1 mM DTT, 0.2 mg/ml substrate peptide, 10 μM ATP and ALK (Table 2.3.1). After the enzymatic reaction, 50 μl of Kinase-Glo Plus Luminescence kinase assay solution (Promega) was added to each reaction and incubate the plate for 5 minutes at room temperature. Luminescence signal was measured using a BioTek Synergy 2 microplate reader. ALK activity assays were performed in duplicate at each concentration. The luminescence data were analyzed using the computer software, Graphpad Prism. The difference between luminescence intensities in the absence of ALK (Lut) and in the presence of ALK (Luc) was defined as 100% activity (Lut−Luc). Using luminescence signal (Lu) in the presence of the compound, % activity was calculated as % activity={(Lut−Lu)/(Lut−Luc)}×100%, where Lu=the luminescence intensity in the presence of the compound (all percent activities below zero were shown zero in the table). The values of % activity versus a series of compound concentrations were then plotted using non-linear regression analysis of Sigmoidal dose-response curve generated with the equation Y=B+(T−B)/1+10^((Log EC50−X)×Hill Slope), where Y=percent activity, B=minimum percent activity, T=maximum percent activity, X=logarithm of compound and Hill Slope=slope factor or Hill coefficient. The IC50 value was determined by the concentration causing a half-maximal percent activity.

[1] = target: T1, BAF3-EML4-ALK stable cell line (Homo sapiens, UniProt Q9UM73); experiment: BAF3-EML4-ALK cell assay (MTT cell proliferation); type: cell-based; settings: 72 hours, read-out: BAF3-EML4-ALK Cell (IC50 grading)
T1 construct: fused on or other part: Q9HC35 (Echinoderm microtubule-associated protein-like 4)
Protocol: BAF3-EML4-ALK Cell Assay:
A method of establishing BAF3-EML4-ALK stable cell line: Transfer 5×10^6 BAF3 cells to a new tube, pellet the cells, and remove PBS by aspiration.; Resuspend the cells in 1 ml electroporation buffer, this provides 5×10^6 of cells; Transfer 200 μl of cell suspension to EP tube, add 5 ug DNA, flip and place it on ice for 10 min; Pipet the 200 μl cell suspension into 2 mm electroporation cuvette; Place the cuvette into shockpod, close the lid, and press the PULSE button; Set parameters: Expentional decay pulse: VOL=200 V; CAP=900 uF, RES=1000Ω; Transfer all cells from electroporation cuvette to 6 well plate, adding 2 ml DMEMF12 containing 5 ng/ml IL3, 24 h later, replace the medium with DMEM F12 containing 2 μg/ml blasticidin S and 5 ng/ml IL3, maintain for 3 days; change the medium with DMEM F12 containing 2 ug/ml blasticidin S and 2.5 ng/ml IL3, maintain 3 days; change the medium with DMEM F12 containing 2 ug/Ml blasticidin S, maintain to culture.
MTT Cell proliferation assay: 5×10^3 per well cell with 100 μl medium was seeded in 96-well plate; 24 hours later, 100 μl fresh medium with various concentration of compounds; After the cells were treated by compounds for 72 hours, add 20 μl MTT (5 mg/ml) into each wells; The plate is incubated at 37° C. for 4 hours; Centrifuge the plate at 800 g for 10 mins, Aspirated the medium, add 150 μl DMSO into each well. Shake plates gently for 10 mins, Measure the absorbance at 570 nm on plate reader; IR=(WC−WT)/WC.

[2] = PK (pharmacokinetic) study in rat, cassette dosing; type: in vivo; settings: male, Wistar, plasma
Protocol: A representative protocol for the PK (pharmacokinetic) is as followed: Animals used were Wistar rat, male and weight about 300-359 grams. Compound 21 and 22 were given either IV or oral to the same animals by cassette dosing. The dose for each compound is 1 mg/kg (volume 5 ml/kg) IV and 2 mg/kg (volume 10 ml/kg) oral. The formulation for IV was in PBS, the pH is adjusted by dilute HCl until compounds were totally dissolved. 0.5% Na-CMC suspension was used for the oral formulation. Sample collection: for IV route, plasma sample were collected at the time point 0.083, 0.25, 0.5, 1, 1.5, 2, 4, 6, 8, 12, 24 h. For oral route, plasma sample were collected at the time point 0.167, 0.33, 0.5, 1, 2, 4, 6, 8, 12, 24 h. Analysis: LC-MS/MS is used to calculate PK parameters: t1/2, tmax, Cmax, Vss and AUC etc.

T1 sequence (Q9UM73 whole entry, change not shown, the tested form may be a part): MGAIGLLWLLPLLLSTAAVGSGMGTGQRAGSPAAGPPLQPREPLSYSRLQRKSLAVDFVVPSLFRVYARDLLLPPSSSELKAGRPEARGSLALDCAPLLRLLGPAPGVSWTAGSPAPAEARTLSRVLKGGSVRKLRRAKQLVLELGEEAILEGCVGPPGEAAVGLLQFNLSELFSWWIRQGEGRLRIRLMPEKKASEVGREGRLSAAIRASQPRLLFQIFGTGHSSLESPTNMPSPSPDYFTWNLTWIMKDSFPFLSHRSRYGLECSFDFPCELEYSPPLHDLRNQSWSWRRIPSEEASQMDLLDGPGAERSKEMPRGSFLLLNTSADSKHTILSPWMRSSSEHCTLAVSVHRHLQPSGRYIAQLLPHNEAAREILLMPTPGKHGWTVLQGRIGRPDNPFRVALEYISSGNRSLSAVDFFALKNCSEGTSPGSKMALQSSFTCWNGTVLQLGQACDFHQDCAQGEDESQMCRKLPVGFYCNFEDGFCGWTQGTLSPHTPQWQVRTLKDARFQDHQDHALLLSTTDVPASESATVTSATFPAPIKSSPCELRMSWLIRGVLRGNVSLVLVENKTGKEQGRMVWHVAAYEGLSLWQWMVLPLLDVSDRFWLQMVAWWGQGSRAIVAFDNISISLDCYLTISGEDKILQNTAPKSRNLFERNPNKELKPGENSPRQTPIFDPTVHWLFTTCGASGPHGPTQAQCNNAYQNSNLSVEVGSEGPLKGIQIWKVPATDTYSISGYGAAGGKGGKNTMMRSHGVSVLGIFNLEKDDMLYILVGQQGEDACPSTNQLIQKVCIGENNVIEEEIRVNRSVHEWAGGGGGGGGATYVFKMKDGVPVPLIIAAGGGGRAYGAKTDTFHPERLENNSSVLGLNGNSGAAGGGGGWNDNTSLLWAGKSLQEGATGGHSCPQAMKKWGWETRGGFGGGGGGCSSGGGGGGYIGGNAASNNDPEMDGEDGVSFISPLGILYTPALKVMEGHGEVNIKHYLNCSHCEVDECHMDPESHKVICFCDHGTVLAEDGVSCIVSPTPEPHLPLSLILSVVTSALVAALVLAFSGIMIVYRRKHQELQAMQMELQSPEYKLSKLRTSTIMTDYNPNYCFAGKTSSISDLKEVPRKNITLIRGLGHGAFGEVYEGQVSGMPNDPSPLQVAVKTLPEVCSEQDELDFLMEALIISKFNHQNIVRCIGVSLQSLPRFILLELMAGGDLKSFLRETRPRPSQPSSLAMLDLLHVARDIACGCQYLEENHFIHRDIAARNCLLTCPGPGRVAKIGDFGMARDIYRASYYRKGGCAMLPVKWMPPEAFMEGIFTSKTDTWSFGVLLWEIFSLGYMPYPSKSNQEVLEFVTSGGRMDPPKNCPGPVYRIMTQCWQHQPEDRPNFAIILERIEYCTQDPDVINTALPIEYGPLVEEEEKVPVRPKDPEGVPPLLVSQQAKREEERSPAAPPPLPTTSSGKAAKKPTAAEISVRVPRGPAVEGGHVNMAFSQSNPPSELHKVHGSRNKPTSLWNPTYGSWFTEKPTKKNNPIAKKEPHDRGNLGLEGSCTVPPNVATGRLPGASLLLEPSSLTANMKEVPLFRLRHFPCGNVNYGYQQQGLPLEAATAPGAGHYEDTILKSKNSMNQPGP
Chain of ALK kinase (Q9UM73 19-1620): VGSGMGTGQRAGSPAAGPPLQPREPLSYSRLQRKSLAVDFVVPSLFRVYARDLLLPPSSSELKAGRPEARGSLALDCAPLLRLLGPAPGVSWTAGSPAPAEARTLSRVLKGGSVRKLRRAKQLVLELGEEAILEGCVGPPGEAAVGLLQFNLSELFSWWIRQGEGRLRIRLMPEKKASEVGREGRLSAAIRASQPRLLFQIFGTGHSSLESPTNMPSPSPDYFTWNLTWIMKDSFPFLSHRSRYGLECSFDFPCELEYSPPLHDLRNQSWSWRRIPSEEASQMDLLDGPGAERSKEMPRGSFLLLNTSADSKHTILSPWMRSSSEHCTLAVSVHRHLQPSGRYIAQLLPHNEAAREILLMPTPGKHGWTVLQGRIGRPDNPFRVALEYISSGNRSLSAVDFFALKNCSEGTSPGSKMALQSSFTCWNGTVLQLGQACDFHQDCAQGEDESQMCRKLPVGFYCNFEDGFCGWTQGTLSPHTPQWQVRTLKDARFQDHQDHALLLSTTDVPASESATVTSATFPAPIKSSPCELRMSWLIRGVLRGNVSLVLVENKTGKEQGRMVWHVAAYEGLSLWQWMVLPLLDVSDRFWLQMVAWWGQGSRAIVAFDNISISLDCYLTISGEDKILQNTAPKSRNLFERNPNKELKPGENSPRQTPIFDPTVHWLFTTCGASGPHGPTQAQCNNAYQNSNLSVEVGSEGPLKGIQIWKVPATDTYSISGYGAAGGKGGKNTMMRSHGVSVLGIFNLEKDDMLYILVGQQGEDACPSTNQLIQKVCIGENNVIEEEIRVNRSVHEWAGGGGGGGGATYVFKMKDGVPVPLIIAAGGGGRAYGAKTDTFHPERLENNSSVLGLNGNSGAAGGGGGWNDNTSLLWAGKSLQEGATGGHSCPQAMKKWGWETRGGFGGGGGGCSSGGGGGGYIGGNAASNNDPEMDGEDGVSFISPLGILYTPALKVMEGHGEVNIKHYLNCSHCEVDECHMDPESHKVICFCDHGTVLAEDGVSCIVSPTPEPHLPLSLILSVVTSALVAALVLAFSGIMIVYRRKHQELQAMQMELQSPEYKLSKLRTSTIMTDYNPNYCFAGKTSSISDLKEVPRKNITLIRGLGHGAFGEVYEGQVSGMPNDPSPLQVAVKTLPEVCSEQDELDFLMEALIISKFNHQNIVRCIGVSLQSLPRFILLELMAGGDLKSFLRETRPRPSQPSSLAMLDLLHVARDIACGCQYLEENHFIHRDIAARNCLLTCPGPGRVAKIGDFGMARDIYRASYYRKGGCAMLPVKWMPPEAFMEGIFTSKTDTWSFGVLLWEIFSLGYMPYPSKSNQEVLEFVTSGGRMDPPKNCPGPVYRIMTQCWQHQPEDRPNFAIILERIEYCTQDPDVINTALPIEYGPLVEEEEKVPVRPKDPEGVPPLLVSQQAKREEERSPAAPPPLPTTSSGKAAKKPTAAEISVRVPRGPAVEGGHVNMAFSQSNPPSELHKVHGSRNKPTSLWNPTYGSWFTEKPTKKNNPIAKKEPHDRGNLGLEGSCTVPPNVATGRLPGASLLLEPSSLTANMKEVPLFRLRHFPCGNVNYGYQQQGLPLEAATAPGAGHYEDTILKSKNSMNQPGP

Structure (SMILES)	IC50 (ALK kinase) [nM]	GI50 [1] [nM]	also measured
CCN1CCC(n2cc(-c3cnc(N)c(OC(C)c4c(Cl)ccc(F)c4Cl)c3)cn2)CC1 (centres unmarked) [Compound 7, 3-(1-(2,6-dichloro-3-fluorophenyl)ethoxy)-5-(1-(1-ethylpiperidin-4-yl)-1H-pyrazol-4-yl)pyridin-2-amine]	≤ 100	≤ 100	–
CC(=O)Nc1ncc(-c2cnn(C3CCNCC3)c2)cc1OC(C)c1c(Cl)ccc(F)c1Cl (centres unmarked) [Compound 9, N-(3-(1-(2,6-dichloro-3-fluorophenyl)ethoxy)-5-(1-(piperidin-4-yl)-1H-pyrazol-4-yl)pyridin-2-yl)acetamide]	≤ 100	≤ 100	–
CCN1CCC(n2cc(-c3cnc(NC(C)=O)c(OC(C)c4c(Cl)ccc(F)c4Cl)c3)cn2)CC1 (centres unmarked) [Compound 10, N-(3-(1-(2,6-dichloro-3-fluorophenyl)ethoxy)-5-(1-(1-ethylpiperidin-4-yl)-1H-pyrazol-4-yl)pyridin-2-yl)acetamide]	100 to 1000	100 to 1000	–
CCNc1ncc(-c2cnn(C3CCNCC3)c2)cc1OC(C)c1c(Cl)ccc(F)c1Cl (centres unmarked) [Compound 11, 3-(1-(2,6-dichloro-3-fluorophenyl)ethoxy)-N-ethyl-5-(1-(piperidin-4-yl)-1H-pyrazol-4-yl)pyridin-2-amine]	≤ 1000	≤ 1000	–
CCCNc1ncc(-c2cnn(C3CCNCC3)c2)cc1OC(C)c1c(Cl)ccc(F)c1Cl (centres unmarked) [Compound 12, 3-(1-(2,6-dichloro-3-fluorophenyl)ethoxy)-5-(1-(piperidin-4-yl)-1H-pyrazol-4-yl)-N-propylpyridin-2-amine]	≤ 1000	≤ 1000	–
CC(=O)Nc1ncc(-c2cnn(C3CCNCC3)c2)cc1O[C@@H](C)c1c(Cl)ccc(F)c1Cl [Compound 13, (S)—N-(3-(1-(2,6-dichloro-3-fluorophenyl)ethoxy)-5-(1-(piperidin-4-yl)-1H-pyrazol-4-yl)pyridin-2-yl)acetamide]	100 to 1000	≤ 1000	–
C[C@H](Oc1cc(-c2cnn(C3CCN(C)CC3)c2)cnc1N)c1c(Cl)ccc(F)c1Cl [Compound 14, (S)-3-(1-(2,6-dichloro-3-fluorophenyl)ethoxy)-5-(1-(1-methylpiperidin-4-yl)-1H-pyrazol-4-yl)pyridin-2-amine]	100 to 1000	≤ 1000	–
[2H]C([2H])([2H])N1CCC(n2cc(-c3cnc(N)c(O[C@@H](C)c4c(Cl)ccc(F)c4Cl)c3)cn2)CC1 [Compound 15, (S)-3-(1-(2,6-dichloro-3-fluorophenyl)ethoxy)-5-(1-(1-d3-methyl-piperidin-4-yl)-1H-pyrazol-4-yl)pyridin-2-amine]	100 to 1000	≤ 1000	–

The next lines start with results.

IC50 (ALK kinase) [nM]	GI50 [1] [nM]	Structure (SMILES)	also measured
100 to 1000	≤ 1000	CCN1CCC(n2cc(-c3cnc(N)c(O[C@@H](C)c4c(Cl)ccc(F)c4Cl)c3)cn2)CC1 [Compound 16, (S)-3-(1-(2,6-dichloro-3-fluorophenyl)ethoxy)-5-(1-(1-ethylpiperidin-4-yl)-1H-pyrazol-4-yl)pyridin-2-amine]	–
100 to 1000	≤ 1000	[2H]C([2H])([2H])C([2H])([2H])N1CCC(n2cc(-c3cnc(N)c(O[C@@H](C)c4c(Cl)ccc(F)c4Cl)c3)cn2)CC1 [Compound 17, (S)-3-(1-(2,6-dichloro-3-fluorophenyl)ethoxy)-5-(1-(1-d5-ethyl-piperidin-4-yl)-1H-pyrazol-4-yl)pyridin-2-amine]	–
≤ 100	≤ 100	C[C@@H](Oc1cc(-c2cnn(C3CCN(C)CC3)c2)cnc1N)c1c(Cl)ccc(F)c1Cl [Compound 19, (R)-3-(1-(2,6-dichloro-3-fluorophenyl)ethoxy)-5-(1-(1-methylpiperidin-4-yl)-1H-pyrazol-4-yl)pyridin-2-amine]	–
≤ 100	≤ 100	CCN1CCC(n2cc(-c3cnc(N)c(O[C@H](C)c4c(Cl)ccc(F)c4Cl)c3)cn2)CC1 [Compound 21, (R)-3-(1-(2,6-dichloro-3-fluorophenyl)ethoxy)-5-(1-(1-ethylpiperidin-4-yl)-1H-pyrazol-4-yl)pyridin-2-amine]	AUC(0-inf) ([2]; IV cassette 1 mg/kg): 443 ng·h/mL; AUC(0-t) ([2]; IV cassette 1 mg/kg): 442 ng·h/mL; Cmax ([2]; IV cassette 1 mg/kg): 317 ng/mL; MRT ([2]; IV cassette 1 mg/kg): 2.89 h; Tmax ([2]; IV cassette 1 mg/kg): 0.083 h; clearance ([2]; IV cassette 1 mg/kg): 37.7 mL/min/kg; half-life ([2]; IV cassette 1 mg/kg): 173 min; AUC(0-inf) ([2]; oral cassette 2 mg/kg): 154 ng·h/mL; AUC(0-t) ([2]; oral cassette 2 mg/kg): 148 ng·h/mL; Cmax ([2]; oral cassette 2 mg/kg): 22.9 ng/mL; MRT ([2]; oral cassette 2 mg/kg): 4.97 h; Tmax ([2]; oral cassette 2 mg/kg): 4 h; half-life ([2]; oral cassette 2 mg/kg): 179 min; bioavailability ([2]; oral cassette 2 mg/kg vs IV 1 mg/kg, read-out: F (bioavailability)): 16.8%

Source: patent publication US20140350050A1, “PYRIDINE COMPOUNDS AS INHIBITORS OF KINASE” (TELIGENE LTD., priority 2011, published 2014)
